In patent publication US8911710B2, “Intravascular contrast agents” (Agency for Science, Technology and Research, priority 2008, dated 2014):

Test: Relaxivity measurement (T1 by inversion recovery spin echo in aqueous phantoms, Varian 9.4T MRI system)
Format: physicochemical
Settings: 25° C., in H2O
Method: Relaxivity measurement and MRI were conducted on a Varian 9.4T MRI system (Palo Alto, Calif., USA). T1 was measured by inversion recovery spin echo in aqueous phantoms with concentrations 0.4, 0.2 0.1, 0.05, 0.025, 0.0125 and 0.00625 mM Gd. In vivo study was conducted on Wistar rats (male, weight 320-340 g) under 2% isoflurane anesthesia. CAs were injected (dosage: 0.04 mmol Gd/kg body weight) through tail vein. T1-weighted images were acquired every 6.4 s for 48 min with T1-weighted gradient echo sequence (TR/TE=50/3 ms, flip-angle=20 degree, resolution=[…], thickness=2 mm).

Row | relaxivity r1 | SMILES
1 | 3.9 mM⁻¹ s⁻¹ | O=C([O-])CN1CCN(CC(=O)[O-])CCN(CC(=O)O)CCN(CC(=O)[O-])CC1.[Gd+3] [Gd-DOTA]
2 | 4.1 mM⁻¹ s⁻¹ | O=C([O-])CN(CCN(CC(=O)[O-])CC(=O)O)CCN(CC(=O)[O-])CC(=O)O.[Gd+3] [Gd-DTPA]
